# According to publication PMC12175894 (Science Advances, 2025):
# Changes are numbered by the printed parent chain.
# Key:
# [1] = target: T1, 5-HT1AR (Homo sapiens, UniProt P08908); experiment: Complementation-based β-arrestin 2 recruitment PathHunter assay; conditions: for Emax: relative to serotonin
# T1 sequence (P08908 1-422): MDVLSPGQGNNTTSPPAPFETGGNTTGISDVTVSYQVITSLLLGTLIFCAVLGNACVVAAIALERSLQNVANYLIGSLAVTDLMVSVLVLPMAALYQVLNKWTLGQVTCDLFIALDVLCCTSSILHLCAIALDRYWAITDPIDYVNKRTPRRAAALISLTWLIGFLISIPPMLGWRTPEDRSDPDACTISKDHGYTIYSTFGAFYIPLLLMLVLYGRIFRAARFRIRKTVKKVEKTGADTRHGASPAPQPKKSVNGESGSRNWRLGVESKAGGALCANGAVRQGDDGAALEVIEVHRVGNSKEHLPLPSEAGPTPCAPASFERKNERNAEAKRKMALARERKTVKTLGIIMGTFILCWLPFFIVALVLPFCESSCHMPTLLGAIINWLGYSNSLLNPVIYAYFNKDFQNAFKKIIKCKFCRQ
# [2] = target: T2, 5-HT1AR F112^3.28W (Homo sapiens, UniProt P08908, F112W); experiment: GloSensor cAMP assay in HEK293A cells; format: cell-based
# T2 sequence (P08908 1-422 F112W): T1 sequence (P08908 1-422) with F112W
# [3] = target: T3, 5-HT1AR + GαoA (Homo sapiens, UniProt P08908); experiment: GloSensor cAMP in HEK293AΔGi/o co-transfected with GαoA; format: cell-based
# T3 construct: host or cells: HEK293AΔGi/o
# [4] = target: T2, 5-HT1AR F112^3.28W; experiment: β-arrestin 2 recruitment, enhanced bystander BRET in HEK293T with GRK2; conditions: HEK-293T, read-out: Emax [% ± SEM], β-arrestin 2 recruitment
# [5] = test system: male C56BL/6 mice; experiment: 50°C tail flick; format: in vivo, mouse; conditions: 10 mg/kg i.p.
# [6] = target: T1, 5-HT1AR; experiment: GloSensor cAMP assay in HEK293A cells deficient of β-arrestins; format: cell-based; set-up: host or cells: HEK293T, HEK293A, HEK293AΔGs, HEK293AΔGi/o, HEK293AΔARRB1/B2
# [7] = target: T4, 5-HT1AR + Gαz (Homo sapiens, UniProt P08908); experiment: GloSensor cAMP in HEK293AΔGi/o co-transfected with Gαz; format: cell-based
# T4 construct: host or cells: HEK293AΔGi/o
# [8] = target: T2, 5-HT1AR F112^3.28W; experiment: Radioligand competition, displacement of [3H]WAY100635; format: binding
# [9] = target: T1, 5-HT1AR; experiment: GloSensor cAMP assay in HEK293T cells; format: cell-based; set-up: host or cells: HEK293T, HEK293A, HEK293AΔGs, HEK293AΔGi/o, HEK293AΔARRB1/B2
# [10] = target: T5, 5-HT1AR F112^3.28W + M92^2.60F (Homo sapiens, UniProt P08908, F112W/M92F); experiment: β-arrestin 2 recruitment, enhanced bystander BRET in HEK293T with GRK2; format: cell-based; conditions: HEK-293T; read-out: Emax [% ± SEM], β-arrestin 2 recruitment
# T5 sequence (P08908 1-422 M92F/F112W): T1 sequence (P08908 1-422) with M92F, F112W
# [11] = target: T6, 5-HT1AR Q97^2.65A (Homo sapiens, UniProt P08908, Q97A); experiment: GloSensor cAMP accumulation in HEK293AΔGi/o; format: cell-based; conditions: read-out: Emax [% ± SEM], cAMP accumulation
# T6 sequence (P08908 1-422 Q97A): T1 sequence (P08908 1-422) with Q97A
# [12] = read-out: Emax, β-arrestin 2 recruitment, PathHunter, elevated GRK2
# [13] = read-out: Emax, β-arrestin 2 recruitment, PathHunter, native GRK2
# [14] = HEK293-A, read-out: Emax [%±SEM], inhibition of cAMP accumulation
# [15] = HEK293-A; read-out: Emax [%±SEM], inhibition of cAMP accumulation
# T3 sequence (P09471 2-354 partner limits assumed, one chain of several): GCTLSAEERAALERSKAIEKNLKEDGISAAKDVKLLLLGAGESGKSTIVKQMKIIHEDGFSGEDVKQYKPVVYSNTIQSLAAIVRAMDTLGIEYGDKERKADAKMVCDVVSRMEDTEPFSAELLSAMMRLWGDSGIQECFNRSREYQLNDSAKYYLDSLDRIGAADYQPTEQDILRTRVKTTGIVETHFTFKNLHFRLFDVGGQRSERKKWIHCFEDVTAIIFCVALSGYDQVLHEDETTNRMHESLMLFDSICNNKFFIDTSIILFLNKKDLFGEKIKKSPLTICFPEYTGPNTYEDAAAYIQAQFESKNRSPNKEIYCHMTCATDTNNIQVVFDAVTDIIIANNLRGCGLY
# T4 sequence (P19086 2-355 partner limits assumed, one chain of several): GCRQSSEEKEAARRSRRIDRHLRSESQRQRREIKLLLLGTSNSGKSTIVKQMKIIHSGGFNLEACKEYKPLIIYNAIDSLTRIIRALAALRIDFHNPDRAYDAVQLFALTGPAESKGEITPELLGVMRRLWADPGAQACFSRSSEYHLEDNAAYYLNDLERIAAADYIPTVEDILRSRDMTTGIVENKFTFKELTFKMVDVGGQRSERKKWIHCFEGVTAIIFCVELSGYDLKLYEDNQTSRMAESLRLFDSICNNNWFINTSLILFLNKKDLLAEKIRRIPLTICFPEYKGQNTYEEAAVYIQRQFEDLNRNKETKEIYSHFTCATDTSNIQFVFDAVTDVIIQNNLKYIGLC
smiles,measurement,setting,value
COc1ccccc1OCCNCCCOc1ccc2c(c1)NC(=O)CO2 [ST171],EC50,[1],5.5 ± 1.4 nM
same,Emax,[1]; [12],15%
same,Emax,[1]; [13],< 5%
same,Emax,[2]; [14],77 ± 9%
same,EC50,"[2]; HEK293A, GloSensor, F112W; read-out: EC50 left [nM±SEM], inhibition of cAMP accumulation",1.7 ± 0.5 nM
same,Emax,[3],100%
same,EC50,"[3]; HEK293AΔGi/o + GαoA, read-out: EC50 [nM ± SEM], inhibition of cAMP accumulation",4.1 ± 1 nM
same,Emax,[4],< 5%
same,"response latency, 50°C tail flick",[5],antinociceptive
same,Emax,[6]; [14],60%
same,EC50,"[6]; HEK Δβ-arrestin, GloSensor; read-out: EC50 left [nM±SEM], inhibition of cAMP accumulation",3.5 ± 1 nM
same,Emax,[7],93%
same,Ki,"[8]; 5-HT1AR F112W, HEK 293T membranes, read-out: Ki [nM ± SEM]",0.16 nM
same,EC50,"[9]; HEK293T, GloSensor; read-out: EC50 left [nM±SEM], inhibition of cAMP accumulation",0.9 ± 0.2 nM
same,Emax,"[9]; HEK-293T, read-out: Emax [%±SEM], inhibition of cAMP accumulation",100 ± 3%
same,Emax,[10],< 5%
same,Emax,[11],< 5%
"Cc1ccc(CNCC2(F)CCN(C(=O)c3ccc(F)c(Cl)c3)CC2)nc1 [befiradol, reference compound]",increase in efficacy with elevated vs native GRK2,[1]; PathHunter β-arrestin 2,approximately 30%
same,increase of potency with elevated vs native GRK2,[1]; PathHunter β-arrestin 2,4 fold
same,Emax,[1]; [12],96 ± 3%
same,Emax,[1]; [13],67%
same,Emax,[2]; [15],96 ± 4%
same,Esat [%±SEM],"[2]; HEK293A, GloSensor, F112W",90 ± 4%
same,Emax,[3],107 ± 3%
same,Emax,[4],86 ± 3%
same,"response latency, 50°C tail flick",[5],antinociceptive
same,Emax,[6]; [15],89 ± 4%
same,Esat [%±SEM],"[6]; HEK Δβ-arrestin, GloSensor",73 ± 5%
same,Emax,[7],95 ± 2%
same,decrease in the binding affinity upon mutation of F112^3.28 to tryptophan,[8]; F112W vs WT,16 fold
same,Esat [%±SEM],"[9]; HEK293T, GloSensor",71 ± 6%
same,Emax,"[9]; HEK-293T; read-out: Emax [%±SEM], inhibition of cAMP accumulation",111 ± 6%
same,Emax,[10],83 ± 4%
same,Emax,[11],60 ± 2%
